The test system of series [1] is male Zucker Diabetic Fatty fa/fa (ZDF) rat. Nature of the series: Long-term treatment of male Zucker Diabetic Fatty fa/fa (ZDF) rats, model of Type 2 diabetes. The format is in vivo. The following applies: for Free fatty acids / Total cholesterol: mean ± SEM. From the text: The male Zucker Diabetic Fatty fa/fa (ZDF) rat is a model of Type 2 diabetes. The rats are insulin resistant but normoglycemic from birth and they develop diabetes from about week 7 to week 10 of age. During the transitional period, the animals go through a state of impaired glucose tolerance. Although the animals are hyperinsulinemic before diabetes onset and during the early stages of diabetes, they later lose glucose-stimulated insulin secretion and finally become almost completely insulinopenic.
Animals were between 7 and 8 weeks old when dosing was initiated, and fed glucose levels were not different between the groups before dosing began. […] After 36 days of dosing, an oral glucose tolerance test was performed in the animals after an 11-hour fast. One g/kg of glucose was administered by oral gavage and subsequent measurements of blood glucose and plasma insulin were made.
In addition to the effects on blood glucose and insulin, we also studied the effects of long-term treatment on lipid parameters. Thus, at the termination of the study, non-fasted plasma measurements of total cholesterol, free fatty acids were performed.

Series [2] concerns normal Wistar rats. Nature of the series: Acute and subchronic anorectic effects, normal Wistar rats. Particulars: lowered from 1.58±0.1, 100 μg/kg s.c. twice daily. The format is in vivo, rat.
Series [3] has as its system Wistar rats subjected to neonatal monosodium glutamate treatment (MSG). Nature of the series: Acute and subchronic anorectic effects, model of hypothalamic obesity (MSG rats). The format is in vivo, rat. The protocol: Solutions were always made fresh approximately 1 hour prior to use and stored at 4° C. in sterile tubes.
Setting [4] is: 150 μg/kg s.c. bi-daily, non-fasted plasma at termination.
Where [5] appears, read: group B, 30 μg/kg s.c. bi-daily, non-fasted plasma at termination.
[6] abbreviates: group C, 150 μg/kg s.c. bi-daily, non-fasted plasma at termination.
[7] abbreviates: 100 μg/kg s.c. twice daily, normal and MSG rats not distinguished.
The mark [8] stands for this setting: initial effect, normalised within few days of treatment.

“Arg^34, Lys^26(N^ε-(γ-Glu(N^α-hexadecanoyl)))-GLP-1(7-37) [GLP1]”: in series [1] (setting [4]), the “free fatty acids, group C compared to group A (vehicle)” value was “significant reduction” and the “total cholesterol, group C compared to group A (vehicle)” value is “significant reduction”. Also, in series [1] (group B, 30 μg/kg s.c. bi-daily, after 10 days of dosing), the “blood glucose state during a normal 24-hour feeding schedule” value is recorded as “hyperglycemic”. In series [1] (setting [5]), this substance displayed a Free fatty acids of 0.29 ± 0.04 mM and a Total cholesterol of 2.9 ± 0.1 mM. For the same substance, the “blood glucose levels during a normal 24-hour feeding schedule vs vehicle- and low-dose-treated animals” value in series [1] (group C, 150 μg/kg s.c. bi-daily, after 10 days of dosing) is recorded as “significantly lower”. For the same substance, the “blood glucose levels during a normal 24-hour feeding schedule” value in series [1] (group C, 150 μg/kg s.c. bi-daily, after 10 days of dosing, compared to initial measurements) was “unchanged”. Also, the “glycemic level in oral glucose tolerance test vs groups A and B” value in series [1] (group C, 150 μg/kg s.c. bi-daily, after 36 days of dosing, 11-hour fast, 1 g/kg glucose by oral gavage) was “significantly lower”. For the same substance, in series [1] (setting [6]), the Free fatty acids was 0.20 ± 0.02 mM and the Total cholesterol was 2.2 ± 0.1 mM. For the same substance, the “plasma levels of triglycerides” value in series [2] is 1.21 ± 0.3 mM. In series [3] (setting [7]), the body weight result is reported as “reduced” and the food intake result is “inhibition”. Also, in series [3] (setting [8]), the diuresis entry is on record as “increases” and the water intake entry is listed as “Initial decreases”. Moreover, the “plasma parameters of renal function” value in series [3] (throughout the experiment) is reported as “remained normal”.

Source of the values: patent publication US20080280815A1, “Lowering Serum Lipids” (Novo Nordisk A/S, priority 2000, published 2008).
